Some test systems named below: SN12C renal; CCRF-CEM leukemia; HL-60(TB) leukemia; HOP-62 NSCLC; MALME-3M melanoma; SF-539 CNS; NCI/ADR-RES ovarian; BT-549 breast; U251 CNS; HCT-116 colon; TK-10 renal; OVCAR-8 ovarian; KM12 colon; A498 renal; RXF 393 renal; OVCAR-4 ovarian; EKVX NSCLC.
Holding throughout (assay): inhibition of tumour cell growth, NCI panel, 48 h

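Step 1: Grow cells in 96-well plates. Step 2: Expose to compound for 48 hours at 5 concentrations. Step 3: Interpolate endpoints linearly; if unreached, use highest concentration. GI50 marks 50% less growth. The concentration for full growth arrest is given as TGI.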

For the compound `CC(=O)Nc1cc2c(cc1O)CC[C@@H]1[C@@H]2CC[C@]2(C)[C@@H](O)CC[C@@H]12`, the GI50 was 48.5 µM with SN12C renal and 39.8 µM in the assay with HCT-116 colon. Besides, the TGI with SN12C renal, in the assay on CCRF-CEM leukemia, in the assay on HL-60(TB) leukemia, in the assay with HOP-62 NSCLC, with MALME-3M melanoma and with SF-539 CNS was above 100 µM each time. Moreover, the TGI in the assay on NCI/ADR-RES ovarian is 55.9 µM; in the assay on BT-549 breast it was 86.3 µM; with U251 CNS it was above 100 µM; with HCT-116 colon it was above 100 µM; with TK-10 renal, above 100 µM; in the assay with OVCAR-8 ovarian, above 100 µM. The TGI in the assay with KM12 colon was 31.4 µM; in the assay with A498 renal it was 70.7 µM; in the assay on RXF 393 renal, above 100 µM; with OVCAR-4 ovarian, above 100 µM; in the assay on EKVX NSCLC it was above 100 µM.
As for `C#CCOC(=O)C(N)CSSCC(N)C(=O)O` (stereo not drawn), the TGI with SN12C renal, in the assay with CCRF-CEM leukemia, with HL-60(TB) leukemia, with HOP-62 NSCLC, in the assay with MALME-3M melanoma and in the assay on SF-539 CNS was above 100 µM throughout. Further, the TGI in the assay on NCI/ADR-RES ovarian, in the assay with BT-549 breast, in the assay on U251 CNS, with HCT-116 colon, with TK-10 renal and in the assay on OVCAR-8 ovarian was above 100 µM each time. The TGI in the assay on KM12 colon, in the assay with A498 renal, in the assay with RXF 393 renal, in the assay on OVCAR-4 ovarian and in the assay on EKVX NSCLC was above 100 µM in each case.
As to `N#CC(C#N)=C(N)/C(C#N)=C/c1cc(O)c(O)c(Br)c1`, the TGI in the assay on SN12C renal was above 100 µM; in the assay with CCRF-CEM leukemia, above 100 µM; in the assay on HL-60(TB) leukemia, above 92.3 µM; with HOP-62 NSCLC, above 100 µM; in the assay with MALME-3M melanoma it was above 100 µM; with SF-539 CNS, above 100 µM. The TGI with NCI/ADR-RES ovarian, in the assay with BT-549 breast, in the assay with U251 CNS, in the assay with HCT-116 colon, in the assay on TK-10 renal and in the assay with OVCAR-8 ovarian was above 100 µM each time. Also, the TGI in the assay with KM12 colon, in the assay on A498 renal, in the assay with RXF 393 renal, with OVCAR-4 ovarian and in the assay on EKVX NSCLC was above 100 µM each time.
As to `CC1=CCC[C@@H]2[C@@](C)(Cc3cc(O)ccc3O)[C@H](C)CC[C@@]12C`, the TGI is 27 µM with SN12C renal; 15.1 µM with CCRF-CEM leukemia; 6.6 µM with HL-60(TB) leukemia; 22.1 µM in the assay on HOP-62 NSCLC; 33.1 µM in the assay on MALME-3M melanoma; 18.4 µM in the assay with SF-539 CNS. Also, the TGI in the assay on NCI/ADR-RES ovarian amounted to 18.9 µM; in the assay on BT-549 breast, 13.1 µM; with U251 CNS, 15.9 µM; in the assay on HCT-116 colon it was 18.8 µM; in the assay with TK-10 renal, 22.2 µM; in the assay on OVCAR-8 ovarian, 16.7 µM. The TGI is 16.4 µM with KM12 colon; 32.7 µM in the assay with A498 renal; 17.1 µM in the assay on RXF 393 renal; 25.7 µM with OVCAR-4 ovarian; 20.3 µM in the assay with EKVX NSCLC.
For `COc1cc(C(N)=O)cc(NC(=O)/C=C/c2ccccc2)c1OC`, the TGI in the assay with SN12C renal, in the assay on CCRF-CEM leukemia, with HL-60(TB) leukemia, with HOP-62 NSCLC, in the assay on MALME-3M melanoma and in the assay on SF-539 CNS was above 100 µM in each case. Also, the TGI in the assay on NCI/ADR-RES ovarian, in the assay on BT-549 breast, in the assay with U251 CNS, in the assay with HCT-116 colon, with TK-10 renal and in the assay with OVCAR-8 ovarian was above 100 µM in each case. Further, the TGI with KM12 colon, in the assay with A498 renal, in the assay with RXF 393 renal, in the assay on OVCAR-4 ovarian and in the assay on EKVX NSCLC was above 100 µM each time.
Turning to `CCCC(=O)OC[n+]1cccc(-c2c(COC(=O)NC(C)C)c(COC(=O)NC(C)C)c3n2CCC3)c1`, the TGI in the assay on SN12C renal was above 100 µM; in the assay with CCRF-CEM leukemia, above 66.3 µM; in the assay with HL-60(TB) leukemia, above 67.3 µM; in the assay on HOP-62 NSCLC, above 100 µM; in the assay with MALME-3M melanoma, above 100 µM; in the assay with SF-539 CNS, 60.9 µM. In addition, the TGI with NCI/ADR-RES ovarian, with BT-549 breast, in the assay on U251 CNS, with HCT-116 colon, in the assay with TK-10 renal and with OVCAR-8 ovarian was above 100 µM in each case. Besides, the TGI with KM12 colon is above 100 µM; in the assay with A498 renal, above 61.6 µM; with RXF 393 renal, above 56.7 µM; with OVCAR-4 ovarian it was above 100 µM; in the assay on EKVX NSCLC it was above 100 µM.
For `CN(C)CCCNc1nnc(NCCCN(C)C)c2c(=O)c3sccc3[nH]c12`, the TGI was 50.9 µM in the assay on SN12C renal; above 50.2 µM in the assay on CCRF-CEM leukemia; above 28.2 µM in the assay with HL-60(TB) leukemia; above 100 µM in the assay on HOP-62 NSCLC; 35.5 µM in the assay with MALME-3M melanoma; 30.1 µM in the assay on SF-539 CNS. For the same compound, the TGI in the assay with NCI/ADR-RES ovarian is above 100 µM; with BT-549 breast, above 79 µM; in the assay on U251 CNS, above 100 µM; with HCT-116 colon, above 33.8 µM; in the assay with TK-10 renal it was above 100 µM; in the assay with OVCAR-8 ovarian it was above 100 µM. Moreover, the TGI was above 58.3 µM in the assay with KM12 colon; above 100 µM in the assay with A498 renal; 42.1 µM with RXF 393 renal; 23.2 µM with OVCAR-4 ovarian; 65.6 µM in the assay on EKVX NSCLC.
For the compound `Cc1c(CCCl)c(N=[N+]=[N-])n2c(nc3ccccc32)c1C#N`, the TGI with SN12C renal was 3.13 µM; with CCRF-CEM leukemia it was 0.987 µM; with HL-60(TB) leukemia, 2.6 µM; in the assay with HOP-62 NSCLC, 5.01 µM; in the assay with MALME-3M melanoma, 2.9 µM; in the assay on SF-539 CNS, 3.5 µM. In addition, the TGI came to 5.53 µM with NCI/ADR-RES ovarian; 2.1 µM in the assay on BT-549 breast; 6.02 µM in the assay on U251 CNS; 1.55 µM in the assay on HCT-116 colon; 3.02 µM with TK-10 renal; 5.21 µM with OVCAR-8 ovarian. In addition, the TGI in the assay on KM12 colon was determined as 3.27 µM; in the assay with A498 renal, 3.85 µM; with RXF 393 renal, 2.85 µM; with OVCAR-4 ovarian, 3.54 µM; in the assay on EKVX NSCLC it was 4.4 µM.

The values are drawn from PubChem BioAssay (NCI).
